From patent US8497241B2, “WNT10-derived peptide and use thereof” (Caregen Co., Ltd., priority 2009, dated 2013)
Entries after “also recorded” stand apart in the source; their conditions may differ.

Columns and labels:
Ki-67 protein [1] = experiment: Mouse hair follicle culture, Ki-67 immunostaining; type: cell-based; settings: 5 days culture, FIG. 13d
WNT protein = experiment: Mouse hair follicle culture, WNT protein immunostaining; type: cell-based; settings: 5 days culture, FIG. 13c
β-catenin [2] = experiment: Mouse hair follicle culture, β-catenin immunostaining; type: cell-based; settings: 5 days culture, FIG. 13b
β-catenin [3] = experiment: Western blot of β-catenin in HaCaT keratinocytes; type: cell-based; settings: FIG. 6a; for expression level of β-catenin: 5 hr, single treatment; for β-catenin expression in the presence of DKK-1: treatment with both DKK-1 and peptide
Protocol: (§1) HaCaT kerationcytes cultured for 48 hr were incubated with the peptides synthesized in preparation Example 1 for 5 hr. The expression level of β-catenin was examined, which is an essential signal molecule to promote hair growth as a representative signaling of WNT protein. The amount of β-catenin was measured by Western blot analysis using an antibody against β-catenin (SantaCruz, USA). In addition, it was observed by an immunohistochemical assay using the same whether β-catenin is translocated into a nucleus. […] Besides, […] activities were also observed in cytosol as β-catenin is still present in cytosol (FIG. 6b).

fibronectin = experiment: Fibronectin ELISA in NIH3T3 fibroblasts; type: cell-based; settings: NIH3T3, FIG. 9b
Protocol: To verify whether the peptides synthesized in preparation Example 1 enhances the expression of fibronectin as a WNT target protein, NIH3T3 fibroblasts (4×10^3 cells) was added to each well of 96-well plates and cultured under 5% CO2 for 24 hr at 37° C. After 24-hr culture, the medium was changed with a fresh medium without serum and cells were treated with empty sample (for normalization), three peptides synthesized (1 μg/ml) and peptide complex (1 μg/ml) aseptically dissolved in 10% DMSO for 3 hr, 10 hr, 24 hr or 48 hr under the same conditions as described above. After 72 hr incubation, the cell culture was collected and the expression level of fibronectin was measured using Fibronectin ELISA kit (R&D systems, USA).

[4] = system: Hair follicle of Balb/C mouse; experiment: Mouse hair follicle culture, H&E staining; type: cell-based; settings: 5 days culture, FIG. 13a
Protocol: Hair follicle of Balb/C mouse hair was dissected with a surgical mess and washed with ethanol, followed by additionally washing with PBS and DMEM culture solution. Hereafter, hair follicles were incubated with 5 μg/ml of each peptide complex dissolved in DMEM culture solution, and cultured under 5% CO2 for 5 days at 37° C. After 5 days-culture, hair follicles were prepared as a paraffin block and each tissue treated with control, peptide complex, DKK-1, and DKK-1 and peptide complex was stained and compared using H&E staining (FIGS. 13a-13d).

Ki-67 protein [5] = experiment: Ki-67 immunostaining (cell proliferation marker) in keratinocytes; type: cell-based; settings: FIG. 4
C57BL/6 mouse = experiment: Mouse hair growth, topical nanosome on back skin; type: in vivo; settings: twice every day
Source text: The peptide synthesized in Preparation Example 1 was formulated into nanosome. Afterwards, the back of C57BL/6 mouse was partially removed and then the skin was topically administered with the nanosome twice every day for 15 days.

HaCaT kerationcytes = experiment: SRB colorimetric assay of cell growth in HaCaT keratinocytes; type: cell-based; settings: 72 hr
Protocol: (§2) In order to evaluate three peptides prepared in Preparation Examples 1-2 whether they have similar activities of growth factor, SRB (Sulforhodamine B; Sigma-Aldrich) colorimetric assay was carried out using HaCaT kerationcytes (Korean Cell Line Bank) and NIH3T3 fibroblasts (Korean Cell Line Bank) according to Rizzino et al. method (Rizzino, et al. Cancer Res., 48: 4266 (1988)).
(§3) HaCaT ketatinocytes and NIH3T3 fibroblasts were cultured in 250 ml-flasks containing EMEM (Eagle's minimal essential media; Gibco, USA) supplemented with 10% FBS (fetal bovine serum; Sigma). Cells cultured were treated with 1% trypsin solution to detach cells from the bottom of culture flasks and centrifuged to collect cell pellets. After cells were resuspended in EMEM not containing FBS, its aliquot (3×10^3 cells) was added to each well of 96-well plates and cultured under 5% CO2 for 24 hr at 37° C. After 24-hr culture, the medium was changed with a fresh medium without serum and cells were incubated with empty sample (for normalization), three peptides synthesized (1 ng/ml, 10 ng/ml, 100 ng/ml, 1 μg/ml and 10 μg/ml) and peptide complex (1 μg/ml) aseptically dissolved in 10% DMSO for 72 hr under the same conditions as described above. […] In addition, absorbance at 590 nm was measured to analyze cell viability. […]

NIH3T3 fibroblasts = experiment: SRB colorimetric assay of cell growth in NIH3T3 fibroblasts; type: cell-based
Protocol: as §2, §3

β-catenin [6] = experiment: Immunohistochemical assay of β-catenin translocation into nucleus in HaCaT keratinocytes; type: cell-based; settings: FIG. 6b
Protocol: as §1

Row | Substance | expression of Ki-67 protein in hair follicle, single treatment (Ki-67 protein [1]) | expression of WNT protein in hair follicle, single treatment (WNT protein) | expression of β-catenin in hair follicle, single treatment (β-catenin [2]) | expression level of β-catenin (β-catenin [3]; FIG. 8) | fibronectin expression, DKK-1 alone (fibronectin) | hair follicles (H&E), single treatment [4] | expression of Ki-67 protein in keratinocytes (Ki-67 protein [5]) | hair growth on mouse back skin at 9 days-treatment (C57BL/6 mouse; C57BL/6) | amount of hair in mouse back skin at 15 days-treatment compared with control group (C57BL/6 mouse; C57BL/6, FIG. 12) | expression level of β-catenin (β-catenin [3]; FIG. 8, listed as the present peptide) | β-catenin expression in the presence of DKK-1 (β-catenin [3]) | β-catenin expression in the presence of DKK-1 (β-catenin [3]; listed as the present peptide) | expression level of fibronectin in treatment with both DKK-1 and peptide (fibronectin; listed as the present peptide) | proliferation and cell shape under a microscope, keratinocytes (HaCaT kerationcytes; FIG. 3) | growth of keratinocytes (HaCaT kerationcytes; HaCaT, 1 ng/ml to 10 μg/ml, FIG. 2a) | proliferation and cell shape under a microscope, fibroblasts (NIH3T3 fibroblasts; 72 hr, FIG. 3) | growth of fibroblasts (NIH3T3 fibroblasts; NIH3T3, 72 hr, 1 ng/ml to 10 μg/ml, FIG. 2b) | translocation of β-catenin to nucleus / β-catenin activity by immunostaining (β-catenin [6]) | translocation of β-catenin to nucleus / β-catenin activity by immunostaining (β-catenin [6]; listed as the present peptide)
1 | DKK-1: a WNT inhibitor and a β-catenin signaling inhibitor, hair loss gene | suppressed | inhibited | inhibited | reduced | inhibited | degenerated | – | – | – | – | – | – | – | – | – | – | – | – | –
2 | H-RQTRVQRCHC-OH (cysteine pairing not given here) [the peptide of the present invention] | – | – | – | significantly elevated | – | – | remarkably enhanced | growing hair was observed | much significantly enhanced | enhancement of β-catenin expression; also recorded: induces elevated activity of β-catenin | β-catenin activity is observed | re-increase of the expression of β-catenin; also recorded: restored and enhanced | restored and enhanced; also recorded: recovered | promotes proliferation of keratinocytes and fibroblasts, and changes their morphological shapes | notably increases the growth of keratinocytes | promotes proliferation of keratinocytes and fibroblasts, and changes their morphological shapes | notably increases the growth | elevated activity of β-catenin | contributes to translocation of β-catenin from cytosol to nucleus
